This note sets out measurements from ChEMBL document CHEMBL5131484, “Design and synthesis of adamantane-1-carbonyl thiourea derivatives as potent and selective inhibitors of h-P2X4 and h-P2X7 receptors: An Emerging therapeutic tool for treatment of inflammation and neurological disorders” (Eur J Med Chem, 2022).

Series [1] addresses T1, P2X purinoceptor 4 (Homo sapiens) (UniProt Q99571).
T1 sequence (whole entry): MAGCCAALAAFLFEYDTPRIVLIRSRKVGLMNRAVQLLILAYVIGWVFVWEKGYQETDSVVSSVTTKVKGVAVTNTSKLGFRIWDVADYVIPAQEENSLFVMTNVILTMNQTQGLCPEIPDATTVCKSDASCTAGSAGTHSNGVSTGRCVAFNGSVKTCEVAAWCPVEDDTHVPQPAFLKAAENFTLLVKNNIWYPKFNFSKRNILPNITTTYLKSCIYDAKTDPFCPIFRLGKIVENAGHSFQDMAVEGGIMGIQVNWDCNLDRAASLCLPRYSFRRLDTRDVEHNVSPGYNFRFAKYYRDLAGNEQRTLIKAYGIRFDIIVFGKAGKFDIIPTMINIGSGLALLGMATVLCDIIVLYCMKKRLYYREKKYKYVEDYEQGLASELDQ
In words: Negative allosteric modulation activity at human P2X4 receptor expressed in human 1321N1 cells assessed as ATP induced calcium response by measuring maximal ATP efficacy at 40 nM relative to control. The class given is cell-based. Conditions: filed as negative allosteric modulator.

Series [2] is described as follows: Cytotoxicity against human HEK293 cells assessed as reduction in cell viability at 50 uM incubated for 24 hrs by MTT assay relative to control. Type of series: toxicity, cell-based. The following applies: read-out: INH.
The target in series [3] is T1, P2X purinoceptor 4 (Homo sapiens). In words: Negative allosteric modulation activity at human P2X4 receptor expressed in human 1321N1 cells assessed as ATP induced calcium response by measuring maximal ATP efficacy at 100 nM relative to control. The class given is cell-based. Conditions: filed as negative allosteric modulator.
Series [4] in a line: Cytotoxicity against human 1321N1 cells assessed as reduction in cell viability at 50 uM incubated for 24 hrs by MTT assay relative to control. The class given is functional.
Series [5] addresses T2, P2X purinoceptor 7 (Homo sapiens, UniProt Q99572).
T2 sequence (Q99572 whole entry): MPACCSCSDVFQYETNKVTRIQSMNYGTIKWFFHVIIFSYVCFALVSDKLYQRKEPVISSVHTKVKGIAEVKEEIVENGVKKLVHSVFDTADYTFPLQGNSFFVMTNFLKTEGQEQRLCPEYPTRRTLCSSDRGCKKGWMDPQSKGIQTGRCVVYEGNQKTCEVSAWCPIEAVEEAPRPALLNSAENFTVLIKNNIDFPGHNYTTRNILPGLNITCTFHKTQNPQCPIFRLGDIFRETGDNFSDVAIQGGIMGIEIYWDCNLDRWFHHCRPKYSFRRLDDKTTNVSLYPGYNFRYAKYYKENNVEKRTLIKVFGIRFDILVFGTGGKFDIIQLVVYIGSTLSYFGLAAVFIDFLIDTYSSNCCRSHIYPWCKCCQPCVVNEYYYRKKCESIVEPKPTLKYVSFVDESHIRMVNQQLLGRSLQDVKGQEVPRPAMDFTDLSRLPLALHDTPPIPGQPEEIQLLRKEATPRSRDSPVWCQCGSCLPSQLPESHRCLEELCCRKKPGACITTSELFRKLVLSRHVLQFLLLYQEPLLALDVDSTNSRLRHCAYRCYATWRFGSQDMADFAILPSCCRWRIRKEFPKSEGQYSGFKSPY
In words: Negative allosteric modulation activity at human P2X7 receptor expressed in human 1321N1 cells assessed as reduction in intracellular Ca2+ influx incubated for 30 mins by Fura-2 AM based fluorescence assay. The class given is cell-based.

Series [6] has as its target T3, P2X purinoceptor 2 (Homo sapiens) (UniProt Q9UBL9).
T3 sequence (whole entry): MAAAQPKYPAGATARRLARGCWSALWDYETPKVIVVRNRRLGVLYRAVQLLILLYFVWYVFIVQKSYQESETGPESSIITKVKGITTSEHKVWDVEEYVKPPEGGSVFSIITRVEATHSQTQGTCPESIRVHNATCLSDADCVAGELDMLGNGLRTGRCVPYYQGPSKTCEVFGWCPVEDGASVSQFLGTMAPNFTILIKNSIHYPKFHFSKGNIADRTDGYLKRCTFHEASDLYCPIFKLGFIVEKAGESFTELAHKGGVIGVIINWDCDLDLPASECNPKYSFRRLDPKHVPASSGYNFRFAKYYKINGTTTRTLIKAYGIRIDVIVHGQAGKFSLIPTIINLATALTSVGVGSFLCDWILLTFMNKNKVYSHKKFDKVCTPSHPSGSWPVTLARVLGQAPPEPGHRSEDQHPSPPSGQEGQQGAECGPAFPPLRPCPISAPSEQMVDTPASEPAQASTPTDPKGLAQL
Kind of series: Negative allosteric modulation activity at human P2X2 receptor expressed in human 1321N1 cells assessed as reduction in intracellular Ca2+ influx incubated for 30 mins by Fura-2 AM based fluorescence assay relative to control. The class given is cell-based.

Series [7] has as its system HeLa. In words: Cytotoxicity against human HeLa cells assessed as reduction in cell viability at 50 uM incubated for 24 hrs by MTT assay relative to control. The class given is functional.
Series [8] has as its target T1, P2X purinoceptor 4 (Homo sapiens). Kind of series: Negative allosteric modulation activity at human P2X4 receptor expressed in human 1321N1 cells assessed as ATP induced calcium response by measuring maximal ATP efficacy at 200 nM relative to control. The class given is cell-based.
Series [9] has as its target P2X purinoceptor 5 (Homo sapiens, UniProt Q93086). In words: Negative allosteric modulation activity at human P2X5 receptor expressed in human 1321N1 cells assessed as reduction in intracellular Ca2+ influx incubated for 30 mins by Fura-2 AM based fluorescence assay relative to control. The class given is cell-based.
Series [10] deals with T1, P2X purinoceptor 4 (Homo sapiens). In words: Negative allosteric modulation activity at human P2X4 receptor expressed in human 1321N1 cells assessed as reduction in intracellular Ca2+ influx incubated for 30 mins by Fura-2 AM based fluorescence assay relative to control. The class given is cell-based.
Series [11] deals with T4, P2X purinoceptor 7 (Homo sapiens) (UniProt Q99572).
T4 sequence (whole entry): T2 sequence (Q99572 whole entry)
Kind of series: Negative allosteric modulation activity at human P2X7 receptor expressed in human 1321N1 cells assessed as ATP induced calcium response by measuring maximal ATP efficacy at 100 nM relative to control. The class given is cell-based. The following applies: filed as negative allosteric modulator.

Series [12] has as its target T4, P2X purinoceptor 7 (Homo sapiens). In words: Negative allosteric modulation activity at human P2X7 receptor expressed in human 1321N1 cells assessed as reduction in ethidium bromide dye uptake at 20 uM preincubated for 15 mins followed by BzATP addition and measured after 30 mins by Ethidium bromide dye based fluorescence plate reader analysis relative to control. Type of series: cell-based. The following applies: filed as negative allosteric modulator, time 45.0 min.

The target is the same in series [13]. Kind of series: Negative allosteric modulation activity at human P2X7 receptor expressed in human 1321N1 cells assessed as ATP induced calcium response by measuring maximal ATP efficacy at 200 nM relative to control. The class given is cell-based.
Series [14] has the same target. Kind of series: Negative allosteric modulation activity at human P2X7 receptor expressed in human 1321N1 cells assessed as ATP induced calcium response by measuring maximal ATP efficacy at 40 nM relative to control. Conditions: filed as negative allosteric modulator. The class given is cell-based.
The target in series [15] is T2, P2X purinoceptor 7. Kind of series: Negative allosteric modulation activity at human P2X7 receptor expressed in human 1321N1 cells assessed as reduction in ethidium bromide dye uptake preincubated for 15 mins followed by BzATP addition and measured after 30 mins by Ethidium bromide dye based fluorescence plate reader analysis. Type of series: cell-based.

Chain of P2X purinoceptor 5 (Q93086 whole entry): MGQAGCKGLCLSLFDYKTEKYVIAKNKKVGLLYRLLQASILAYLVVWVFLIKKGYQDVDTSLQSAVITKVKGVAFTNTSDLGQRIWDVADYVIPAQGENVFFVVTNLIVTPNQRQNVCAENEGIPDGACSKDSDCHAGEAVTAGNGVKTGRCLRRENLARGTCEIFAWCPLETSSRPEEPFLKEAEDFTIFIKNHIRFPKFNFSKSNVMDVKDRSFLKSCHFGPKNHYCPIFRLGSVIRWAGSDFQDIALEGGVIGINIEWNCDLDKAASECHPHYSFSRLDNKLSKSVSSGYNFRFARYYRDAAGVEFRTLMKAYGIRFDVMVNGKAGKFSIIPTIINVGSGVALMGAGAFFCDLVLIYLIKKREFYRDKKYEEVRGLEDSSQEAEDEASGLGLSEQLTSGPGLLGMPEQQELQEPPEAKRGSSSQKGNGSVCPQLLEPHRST

As for `CC(C)c1ccc(NC(=S)NC(=O)C23CC4CC(CC(C4)C2)C3)c(Br)c1`, the Emax in [1] came to 68%; in [3], 45%; in [8], 32%. Besides, the cytotoxicity at 24 h, 50 µM in series [2] was determined as 4.28%. For the same compound, the inhibition at 50 µM in series [4] was 9.26%; in series [7], 6.54%. In addition, the IC50 in series [5] came to 25.2 µM. Besides, the inhibition in series [6] amounted to 30%; in series [9] it was 12%.

As for `O=C(NC(=S)Nc1cccc2cccnc12)C12CC3CC(CC(C3)C1)C2`, the inhibition in series [10] was determined as 25%; in [6], 15%; in series [9] it was 32%. Besides, the cytotoxicity at 24 h, 50 µM in series [2] was found to be 5.05%. Besides, the Emax in series [11] came to 59%; in [12], 42%; in series [13], 31%; in [14], 78%. In addition, the inhibition at 50 µM in series [4] came to 9.12%; in series [7] it was 6.22%. Also, the IC50 in [15] amounted to 0.068 µM.
